Assay results from PubChem BioAssay (NCI).
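Where inhibition never reached the appropriate level, the endpoint shown equals the highest concentration tested. Otherwise, values were interpolated linearly from a five-concentration, 48-hour dose response in 96-well plates. GI50 marks 50% less growth. Definition used: TGI = concentration required for complete inhibition of growth.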

How the values were obtained:
Test in all cases: NCI tumour cell line growth inhibition, 48 h
HT29 colon = system: HT29 colon
HCT-15 colon = system: HCT-15 colon
SNB-19 CNS = system: SNB-19 CNS
IGROV1 ovarian = system: IGROV1 ovarian
MOLT-4 leukemia = system: MOLT-4 leukemia
ACHN renal = system: ACHN renal
SK-MEL-5 melanoma = system: SK-MEL-5 melanoma
A498 renal = system: A498 renal
HCT-116 colon = system: HCT-116 colon
UACC-257 melanoma = system: UACC-257 melanoma
SK-OV-3 ovarian = system: SK-OV-3 ovarian
SK-MEL-2 melanoma = system: SK-MEL-2 melanoma
K-562 leukemia = system: K-562 leukemia
NCI-H226 lung = system: NCI-H226 lung
SF-539 CNS = system: SF-539 CNS
EKVX NSCLC = system: EKVX NSCLC
NCI-H460 lung = system: NCI-H460 lung
NCI/ADR-RES ovarian = system: NCI/ADR-RES ovarian
LOX IMVI melanoma = system: LOX IMVI melanoma
SNB-75 CNS = system: SNB-75 CNS
SF-295 CNS = system: SF-295 CNS
PC-3 prostate = system: PC-3 prostate
SF-268 CNS = system: SF-268 CNS
MALME-3M melanoma = system: MALME-3M melanoma
SN12C renal = system: SN12C renal
COLO 205 colon = system: COLO 205 colon
UACC-62 melanoma = system: UACC-62 melanoma
TK-10 renal = system: TK-10 renal
NCI-H23 lung = system: NCI-H23 lung
BT-549 breast = system: BT-549 breast
CAKI-1 renal = system: CAKI-1 renal
SW-620 colon = system: SW-620 colon
MDA-MB-435 = system: MDA-MB-435
T-47D breast = system: T-47D breast
NCI-H522 lung = system: NCI-H522 lung
KM12 colon = system: KM12 colon
M14 melanoma = system: M14 melanoma
OVCAR-3 ovarian = system: OVCAR-3 ovarian
HOP-62 NSCLC = system: HOP-62 NSCLC
HCC-2998 colon = system: HCC-2998 colon
A549 NSCLC = system: A549 NSCLC
MCF7 breast = system: MCF7 breast
DU-145 prostate = system: DU-145 prostate
OVCAR-8 ovarian = system: OVCAR-8 ovarian
OVCAR-5 ovarian = system: OVCAR-5 ovarian
SK-MEL-28 melanoma = system: SK-MEL-28 melanoma
MDA-MB-231 breast = system: MDA-MB-231 breast
U251 CNS = system: U251 CNS
OVCAR-4 ovarian = system: OVCAR-4 ovarian
UO-31 renal = system: UO-31 renal
786-0 renal = system: 786-0 renal
HS 578T breast = system: HS 578T breast

Structure (SMILES): CNC(=O)C(CCc1ccccc1)NC(=O)C(CC(=O)NO)CC(C)C (centres undefined)
- GI50 (HT29 colon): > 25 µM
- TGI (HT29 colon): > 25 µM
- GI50 (HCT-15 colon): > 25 µM
- TGI (HCT-15 colon): > 25 µM
- GI50 (SNB-19 CNS): > 25 µM
- TGI (SNB-19 CNS): > 25 µM
- GI50 (IGROV1 ovarian): > 25 µM
- TGI (IGROV1 ovarian): > 25 µM
- GI50 (MOLT-4 leukemia): > 25 µM
- TGI (MOLT-4 leukemia): > 25 µM
- GI50 (ACHN renal): > 25 µM
- TGI (ACHN renal): > 25 µM
- GI50 (SK-MEL-5 melanoma): > 25 µM
- TGI (SK-MEL-5 melanoma): > 25 µM
- GI50 (A498 renal): > 25 µM
- TGI (A498 renal): > 25 µM
- GI50 (HCT-116 colon): > 25 µM
- TGI (HCT-116 colon): > 25 µM
- GI50 (UACC-257 melanoma): > 25 µM
- TGI (UACC-257 melanoma): > 25 µM
- GI50 (SK-OV-3 ovarian): > 25 µM
- TGI (SK-OV-3 ovarian): > 25 µM
- GI50 (SK-MEL-2 melanoma): > 25 µM
- TGI (SK-MEL-2 melanoma): > 25 µM
- GI50 (K-562 leukemia): 19.6 µM
- TGI (K-562 leukemia): > 25 µM
- GI50 (NCI-H226 lung): > 25 µM
- TGI (NCI-H226 lung): > 25 µM
- GI50 (SF-539 CNS): > 25 µM
- TGI (SF-539 CNS): > 25 µM
- GI50 (EKVX NSCLC): 8.31 µM
- TGI (EKVX NSCLC): > 25 µM
- GI50 (NCI-H460 lung): > 25 µM
- TGI (NCI-H460 lung): > 25 µM
- GI50 (NCI/ADR-RES ovarian): > 25 µM
- TGI (NCI/ADR-RES ovarian): > 25 µM
- GI50 (LOX IMVI melanoma): > 25 µM
- TGI (LOX IMVI melanoma): > 25 µM
- GI50 (SNB-75 CNS): > 25 µM
- TGI (SNB-75 CNS): > 25 µM
- GI50 (SF-295 CNS): > 25 µM
- TGI (SF-295 CNS): > 25 µM
- GI50 (PC-3 prostate): > 25 µM
- TGI (PC-3 prostate): > 25 µM
- GI50 (SF-268 CNS): > 25 µM
- TGI (SF-268 CNS): > 25 µM
- GI50 (MALME-3M melanoma): > 25 µM
- TGI (MALME-3M melanoma): > 25 µM
- GI50 (SN12C renal): > 25 µM
- TGI (SN12C renal): > 25 µM
- GI50 (COLO 205 colon): > 25 µM
- TGI (COLO 205 colon): > 25 µM
- GI50 (UACC-62 melanoma): > 25 µM
- TGI (UACC-62 melanoma): > 25 µM
- GI50 (TK-10 renal): > 25 µM
- TGI (TK-10 renal): > 25 µM
- GI50 (NCI-H23 lung): > 25 µM
- TGI (NCI-H23 lung): > 25 µM
- GI50 (BT-549 breast): > 25 µM
- TGI (BT-549 breast): > 25 µM
- GI50 (CAKI-1 renal): > 25 µM
- TGI (CAKI-1 renal): > 25 µM
- GI50 (SW-620 colon): > 25 µM
- TGI (SW-620 colon): > 25 µM
- GI50 (MDA-MB-435): > 25 µM
- TGI (MDA-MB-435): > 25 µM
- GI50 (T-47D breast): > 25 µM
- TGI (T-47D breast): > 25 µM
- GI50 (NCI-H522 lung): > 25 µM
- TGI (NCI-H522 lung): > 25 µM
- GI50 (KM12 colon): > 25 µM
- TGI (KM12 colon): > 25 µM
- GI50 (M14 melanoma): > 25 µM
- TGI (M14 melanoma): > 25 µM
- GI50 (OVCAR-3 ovarian): > 25 µM
- TGI (OVCAR-3 ovarian): > 25 µM
- GI50 (HOP-62 NSCLC): > 25 µM
- TGI (HOP-62 NSCLC): > 25 µM
- GI50 (HCC-2998 colon): > 25 µM
- TGI (HCC-2998 colon): > 25 µM
- GI50 (A549 NSCLC): > 25 µM
- TGI (A549 NSCLC): > 25 µM
- GI50 (MCF7 breast): > 25 µM
- TGI (MCF7 breast): > 25 µM
- GI50 (DU-145 prostate): > 25 µM
- TGI (DU-145 prostate): > 25 µM
- GI50 (OVCAR-8 ovarian): > 25 µM
- TGI (OVCAR-8 ovarian): > 25 µM
- GI50 (OVCAR-5 ovarian): > 25 µM
- TGI (OVCAR-5 ovarian): > 25 µM
- GI50 (SK-MEL-28 melanoma): > 25 µM
- TGI (SK-MEL-28 melanoma): > 25 µM
- GI50 (MDA-MB-231 breast): > 25 µM
- TGI (MDA-MB-231 breast): > 25 µM
- GI50 (U251 CNS): > 25 µM
- TGI (U251 CNS): > 25 µM
- GI50 (OVCAR-4 ovarian): > 25 µM
- TGI (OVCAR-4 ovarian): > 25 µM
- GI50 (UO-31 renal): > 25 µM
- TGI (UO-31 renal): > 25 µM
- GI50 (786-0 renal): > 25 µM
- TGI (786-0 renal): > 25 µM
- GI50 (HS 578T breast): > 25 µM
- TGI (HS 578T breast): > 25 µM
